Assay results taken from US20250320224A1 (DOMAIN THERAPEUTICS, priority 2022, published 2025).

Target: T1, human PAR-2 (hPAR-2) receptor (Homo sapiens, UniProt P55085)
T1 construct: expressed in HEK-293 cells in an endogenous manner; endogenous in cells; host or cells: HEK-293
T1 sequence (P55085 26-397): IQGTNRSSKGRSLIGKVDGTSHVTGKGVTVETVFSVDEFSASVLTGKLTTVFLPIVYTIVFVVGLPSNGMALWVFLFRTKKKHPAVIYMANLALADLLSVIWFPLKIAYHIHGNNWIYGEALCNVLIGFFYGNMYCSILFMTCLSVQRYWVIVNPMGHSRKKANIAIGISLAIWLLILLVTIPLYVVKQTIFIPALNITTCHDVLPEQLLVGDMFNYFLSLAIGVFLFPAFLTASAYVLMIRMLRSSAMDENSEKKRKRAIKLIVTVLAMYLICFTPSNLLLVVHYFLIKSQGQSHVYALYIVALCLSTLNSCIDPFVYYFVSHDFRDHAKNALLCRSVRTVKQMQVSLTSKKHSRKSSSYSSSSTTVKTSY
Assay: In vitro human PAR-2 functional antagonist activity using calcium assays
Format: cell-based
Settings: hPAR-2 endogenously expressed in HEK-293 cells; stimulated by 2-Furoyl-LIGRLO-NH2 peptide; Fluo4AM intracellular calcium, FLIPR Tetra
Method in brief: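 Antagonism was measured as reduced calcium response to 2-Furoyl-LIGRLO-NH2 (dosed at its 80%-of-maximum concentration), recorded for 5 min. This followed a 10 min compound pre-incubation on Fluo4AM-loaded HEK-293 cells expressing native hPAR-2. Signals were normalised to buffer and agonist-alone controls.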

Row | SMILES | IC50
1 | CC1(C)CN(CCc2ccc(F)cc2)c2ncc(C(=O)N3CCN(c4ccc(CC(=O)O)cn4)CC3(C)C)nc21 [Example 211, 2-(6-(4-(5-(4-fluorophenethyl)-7,7-dimethyl-6,7-dihydro-5H-pyrrolo[2,3-b]pyrazine-2-carbonyl)-3,3-dimethylpiperazin-1-yl)pyridin-3-yl)acetic acid] | 500 to 10000 nM
2 | Cc1cc(N2CCN(C(=O)c3cnc4c(n3)C(C)(C)CN4CCc3ccc(F)cc3)C(C)(C)C2)nc(C)c1C(=O)O [Example 213] | 500 to 10000 nM
3 | Cc1cc(N2CCN(C(=O)c3ccc4c(n3)C3(CN4c4ccc(Cl)c(F)c4)CC(C)(C)C3)C(C)(C)C2)nc(C)c1C(=O)O [Example 215, 6-(4-(1′-(4-chloro-3-fluorophenyl)-3,3-dimethyl-1′,2′-dihydrospiro[cyclobutane-1,3′-pyrrolo[3,2-b]pyridine]-5′-carbonyl)-3,3-dimethylpiperazin-1-yl)-2,4-dimethylnicotinic acid] | < 500 nM
4 | CC1(C)CN(c2cc(F)c(F)c(F)c2)c2ncc(C(=O)N3CCN(c4ccc(CC(=O)O)cn4)CC3(C)C)nc21 [Example 217, 2-(6-(4-(7,7-dimethyl-5-(3,4,5-trifluorophenyl)-6,7-dihydro-5H-pyrrolo[2,3-b]pyrazine-2-carbonyl)-3,3-dimethylpiperazin-1-yl)pyridin-3-yl)acetic acid] | < 500 nM
5 | CC1(C)CN(c2ccc(C(F)(F)F)c(Cl)c2)c2ncc(C(=O)N3CCN(c4ccc(CC(=O)O)cn4)CC3(C)C)nc21 [Example 219, 2-(6-(4-(5-(3-chloro-4-(trifluoromethyl)phenyl)-7,7-dimethyl-6,7-dihydro-5H-pyrrolo[2,3-b]pyrazine-2-carbonyl)-3,3-dimethylpiperazin-1-yl)pyridin-3-yl)acetic acid] | < 500 nM
6 | CC1(C)CN(c2ccc(Cl)c(Cl)c2)c2ncc(C(=O)N3CCN(c4ccc(CC(=O)O)cn4)CC3(C)C)nc21 [Example 221, 2-(6-(4-(5-(3,4-dichlorophenyl)-7,7-dimethyl-6,7-dihydro-5H-pyrrolo[2,3-b]pyrazine-2-carbonyl)-3,3-dimethylpiperazin-1-yl)pyridin-3-yl)acetic acid] | < 500 nM
7 | Cc1cc(N2CCN(C(=O)c3cnc4c(n3)C3(CCCC3)CN4c3ccc(F)c(F)c3)C(C)(C)C2)nc(C)c1C(=O)O [Example 223, 6-(4-(5′-(3,4-difluorophenyl)-5′,6′-dihydrospiro[cyclopentane-1,7′-pyrrolo[2,3-b]pyrazine]-2′-carbonyl)-3,3-dimethylpiperazin-1-yl)-2,4-dimethylnicotinic acid] | < 500 nM
8 | COCC1CC2(C1)CN(c1ccc(Cl)c(F)c1)c1ccc(C(=O)N3CCN(c4cc(C)c(C(=O)O)c(C)n4)CC3(C)C)nc12 (centres unmarked) [Example 225, 6-(4-(1′-(4-chloro-3-fluorophenyl)-3-(methoxymethyl)-1′,2′-dihydrospiro[cyclobutane-1,3′-pyrrolo[3,2-b]pyridine]-5′-carbonyl)-3,3-dimethylpiperazin-1-yl)-2,4-dimethylnicotinic acid] | < 500 nM
9 | CC1(C)CN(c2ccc(CC(=O)O)cn2)CCN1C(=O)c1cnc2c(n1)C1(CCCC1)CN2c1ccc(F)c(F)c1 [Example 229, 2-(6-(4-(5′-(3,4-difluorophenyl)-5′,6′-dihydrospiro[cyclopentane-1,7′-pyrrolo[2,3-b]pyrazine]-2′-carbonyl)-3,3-dimethylpiperazin-1-yl)pyridin-3-yl)acetic acid] | < 500 nM
10 | CC1(C)CN(c2ccc(CC(=O)O)cn2)CCN1C(=O)c1cnc2c(n1)C1(CCC1)CN2c1ccc(Cl)c(F)c1 [Example 231, 2-(6-(4-(5′-(4-chloro-3-fluorophenyl)-5′,6′-dihydrospiro[cyclobutane-1,7′-pyrrolo[2,3-b]pyrazine]-2′-carbonyl)-3,3-dimethylpiperazin-1-yl)pyridin-3-yl)acetic acid] | < 500 nM
11 | Cc1cc(N2CCN(C(=O)c3cnc4c(n3)C3(CN4c4ccc(F)c(F)c4)CC(C)(C)C3)C(C)(C)C2)nc(C)c1C(=O)O [Example 233, 6-(4-(5′-(3,4-difluorophenyl)-3,3-dimethyl-5′,6′-dihydrospiro[cyclobutane-1,7′-pyrrolo[2,3-b]pyrazine]-2′-carbonyl)-3,3-dimethylpiperazin-1-yl)-2,4-dimethylnicotinic acid] | < 500 nM
12 | Cc1cc(N2CCN(C(=O)c3cnc4c(n3)C3(CN4c4cc(F)c(F)c(F)c4)CC(C)(C)C3)C(C)(C)C2)nc(C)c1C(=O)O [Example 235, 6-(4-(3,3-dimethyl-5′-(3,4,5-trifluorophenyl)-5′,6′-dihydrospiro[cyclobutane-1,7′-pyrrolo[2,3-b]pyrazine]-2′-carbonyl)-3,3-dimethylpiperazin-1-yl)-2,4-dimethylnicotinic acid] | < 500 nM
13 | Cc1cc(N2CCN(C(=O)c3cnc4c(n3)C3(CCC3)CN4c3ccc(Cl)c(F)c3)C(C)(C)C2)nc(C)c1C(=O)O [Example 237, 6-(4-(5′-(4-chloro-3-fluorophenyl)-5′,6′-dihydrospiro[cyclobutane-1,7′-pyrrolo[2,3-b]pyrazine]-2′-carbonyl)-3,3-dimethylpiperazin-1-yl)-2,4-dimethylnicotinic acid] | < 500 nM
14 | COCC1CC2(C1)CN(c1ccc(Cl)c(F)c1)c1ccc(C(=O)N3CCN(c4ccc(CC(=O)O)cn4)CC3(C)C)nc12 (centres unmarked) [Example 239, 2-(6-(4-(1′-(4-chloro-3-fluorophenyl)-3-(methoxymethyl)-1′,2′-dihydrospiro[cyclobutane-1,3′-pyrrolo[3,2-b]pyridine]-5′-carbonyl)-3,3-dimethylpiperazin-1-yl)pyridin-3-yl)acetic acid] | < 500 nM
15 | CC1(C)CN(c2cc(F)c(Cl)c(F)c2)c2ncc(C(=O)N3CCN(c4ccc(CC(=O)O)cn4)CC3(C)C)nc21 [Example 241, 2-(6-(4-(5-(4-chloro-3,5-difluorophenyl)-7,7-dimethyl-6,7-dihydro-5H-pyrrolo[2,3-b]pyrazine-2-carbonyl)-3,3-dimethylpiperazin-1-yl)pyridin-3-yl)acetic acid] | < 500 nM
16 | CC1(C)CN(c2ccc(CC(=O)O)cn2)CCN1C(=O)c1cnc2c(n1)C1(CCCC1)CN2c1ccc(Cl)c(F)c1 [Example 243, 2-(6-(4-(5′-(4-chloro-3-fluorophenyl)-5′,6′-dihydrospiro[cyclopentane-1,7′-pyrrolo[2,3-b]pyrazine]-2′-carbonyl)-3,3-dimethylpiperazin-1-yl)pyridin-3-yl)acetic acid] | < 500 nM
17 | CC1(C)CC2(CN(c3ccc(F)c(F)c3)c3ncc(C(=O)N4CCN(c5ccc(CC(=O)O)cn5)CC4(C)C)nc32)C1 [Example 245, 2-(6-(4-(5′-(3,4-difluorophenyl)-3,3-dimethyl-5′,6′-dihydrospiro[cyclobutane-1,7′-pyrrolo[2,3-b]pyrazine]-2′-carbonyl)-3,3-dimethylpiperazin-1-yl)pyridin-3-yl)acetic acid] | < 500 nM
18 | Cc1cc(N2CCN(C(=O)c3cnc4c(n3)C3(CN4c4ccc(Cl)c(F)c4)CC(C)(C)C3)C(C)(C)C2)nc(C)c1C(=O)O [Example 247, 6-(4-(5′-(4-chloro-3-fluorophenyl)-3,3-dimethyl-5′,6′-dihydrospiro[cyclobutane-1,7′-pyrrolo[2,3-b]pyrazine]-2′-carbonyl)-3,3-dimethylpiperazin-1-yl)-2,4-dimethylnicotinic acid] | < 500 nM
19 | Cc1cc(N2CCN(C(=O)c3cnc4c(n3)C(C)(C)CN4c3ccc(Cl)c(Cl)c3)C(C)(C)C2)nc(C)c1C(=O)O [Example 249, 6-(4-(5-(3,4-dichlorophenyl)-7,7-dimethyl-6,7-dihydro-5H-pyrrolo[2,3-b]pyrazine-2-carbonyl)-3,3-dimethylpiperazin-1-yl)-2,4-dimethylnicotinic acid] | < 500 nM
20 | Cc1ccc(N2CC(C)(C)c3nc(C(=O)N4CCN(c5ccc(CC(=O)O)cn5)CC4(C)C)cnc32)cc1Cl [Example 251, 2-(6-(4-(5-(3-chloro-4-methylphenyl)-7,7-dimethyl-6,7-dihydro-5H-pyrrolo[2,3-b]pyrazine-2-carbonyl)-3,3-dimethylpiperazin-1-yl)pyridin-3-yl)acetic acid] | < 500 nM
21 | COC1c2nc(C(=O)N3CCN(c4ccc(CC(=O)O)cn4)CC3(C)C)ccc2N(c2ccc(Cl)c(F)c2)CC1(C)C (centres unmarked) [Example 253, 2-(6-(4-(5-(4-chloro-3-fluorophenyl)-8-methoxy-7,7-dimethyl-5,6,7,8-tetrahydro-1,5-naphthyridine-2-carbonyl)-3,3-dimethylpiperazin-1-yl)pyridin-3-yl)acetic acid] | 500 to 10000 nM
22 | COc1cc2c(nc1C(=O)N1CCN(c3ccc(CC(=O)O)cn3)CC1(C)C)C(C)(C)CN2c1ccc(Cl)c(F)c1 [Example 255, 2-(6-(4-(1-(4-chloro-3-fluorophenyl)-6-methoxy-3,3-dimethyl-2,3-dihydro-1H-pyrrolo[3,2-b]pyridine-5-carbonyl)-3,3-dimethylpiperazin-1-yl)pyridin-3-yl)acetic acid] | > 10000 nM
23 | CC(C)CN1CC(C)(c2ccc(Cl)c(F)c2)c2ccc(C(=O)N3CCN(c4ccc(CC(=O)O)cn4)CC3(C)C)nc21 (centres unmarked) [Example 257, 2-(6-(4-(3-(4-chloro-3-fluorophenyl)-1-isobutyl-3-methyl-2,3-dihydro-1H-pyrrolo[2,3-b]pyridine-6-carbonyl)-3,3-dimethylpiperazin-1-yl)pyridin-3-yl)acetic acid] | 500 to 10000 nM
